Laboratory results reported in US5773438A, “Synthetic matrix metalloprotease inhibitors and use thereof” (Glycomed Incorporated, priority 1994, dated 1998).

Experiments:
[1] = system: MMPs; conditions: cited from earlier work
[2] = system: PdiBu-Induced Epidermal Hyperplasia; experiment: PdiBu-induced epidermal hyperplasia mouse model (psoriasis); assay type: in vivo, hairless mice
Method: The phorbol ester, PdiBu (20 nmol in 20 μl if acetone) was applied to both ears of hairless mice (h/h) (approximately 1 cm^2 each). The test compounds (in total volume of 20 μl) were then applied to the right ear immediately (15 to 30 min) following PdiBu. The left ear of each animal received an equivalent amount (20 μl) of vehicle. Test compounds (and vehicle) were reapplied at 6 and 18 hours following PdiBu. Treatment times were staggered to allow exact time intervals to be obtained. At 30 hours after PdiBu, animals were anesthetized, and ear thickness values were obtained using a microcaliper. The weights of punch biopsies (6mm) were then obtained. Histology was performed on selected samples taken at 30 hours.
Left ear in each animal served as vehicle-treated controls (PdiBu+ETOH). Thus, the controls for this series include: 1) Untreated controls; 2) PdiBu plus vehicle alone (included for each mouse tested); 3) PdiBu plus AHA; 4) PdiBu plus Lidex® as a positive control.

CC(=O)NO [AHA, acetohydroxamic acid, reference compound]
inhibitory effects on MMPs [1]: devoid of inhibitory effects on MMPs
ear thickness (AHA control) ([2]; PdiBu + AHA, 0.53 μmol/ear at 0.25, 6.0 and 24 hours): 36.8 ± 1.3 inch × 10^-3
biopsy weight (AHA control) ([2]; PdiBu + AHA, 0.53 μmol/ear at 0.25, 6.0 and 24 hours, in mg): 24.1 ± 1.2
ear thickness (positive control section) ([2]; Positive Control: Lidex (fluocinonide) section, single experiment): 15.8 ± 0.4
biopsy weight (positive control section) ([2]; Positive Control: Lidex (fluocinonide) section, single experiment, in mg): 9.7 ± 0.3
effect on PdiBu-induced ear thickness ([2]; topical): did not alter
effect on PdiBu-induced increase in punch biopsy weight ([2]; topical): did not alter
